Earlier results as cited in patent US7901689B2, “Chimeric peptides as immunogens, antibodies thereto, and methods for immunization using chimeric peptides or antibodies” (Intellect Neurosciences, Inc., priority 1999, dated 2011).

How the values were obtained:
[1] = tested on: Aβ production; conditions: Knops et al., 1995, Haass et al., read-out: EC50 for inhibition of Aβ production
[2] = tested on: Aβ-induced toxicity in cultured neurons; conditions: Yankner et al., 1995
[3] = tested on: Alzheimer's disease-like pathology in PDAPP transgenic mice; conditions: Schenk et al. 1999

Compound: CO/C1=C\C(C)=C\[C@@H](C)[C@@H](O)[C@@H](C)C/C(C)=C/C=C/[C@H](OC)[C@@H]([C@@H](C)[C@@H](O)[C@H](C)[C@@]2(O)C[C@@H](O)[C@H](C)[C@@H](C(C)C)O2)OC1=O [Bafilomycin]
- EC50 [1]: ~50 nM

Compound: Nc1c(/N=N/c2ccc(-c3ccc(/N=N/c4cc(S(=O)(=O)O)c5ccccc5c4N)cc3)cc2)cc(S(=O)(=O)O)c2ccccc12 [Congo Red]
- Aβ-induced toxicity in cultured neurons [2]: completely inhibits

Compound: amyloid-β: intact amyloid-β used as immunogen by Schenk et al. (1999)
- development of β-amyloid plaque formation, neuritic dystrophy and astragliosis ([3]; immunization of young animals prior to onset of neuropathologies): essentially prevented
- extent and progression of Alzheimer's disease-type neuropathologies ([3]; treatment in older animals after onset of neuropathologies): reduce the extent and progression
